Data published in patent US6534099B1, “Pesticidal compositions containing menthyl salicylate” (Ecosmart Technologies, Inc., priority 1993, dated 2003).

What was measured:
harvester = assay: Open glass petri dish exposure (Study E); format: in vivo, harvester ants; conditions: mixed with soybean oil
Description: (§1) To address whether the efficacy of PEP will be increased with menthyl salicylate/soybean oil against harvester and black ants.
(§2) glass petri dishes 100 mm were used in this study
(§3) all treated dishes kept open during the time of exposure

black ants = assay: Open glass petri dish exposure (Study E); format: in vivo; conditions: mixed with soybean oil
Description: as §1, §2, §3

German cockroaches = assay: Walk-across continuous exposure in treated jars (Study A and B); format: in vivo
Procedure: Experiment 1: To determine the lethal activity of menthyl salicylate against cockroaches. Menthyl salicylate was tested at 250 mg/jar against German cockroaches. Two replicates were used in this study. Three adult German cockroaches were used per replicate. Continuous exposure was performed with “walk-across”. All controls and treated roaches were under continuous observations for 6 hrs.
Experiment 1. To determine whether menthyl salicylate acts as a synergist to eugenol and /or PEP blend. This experiment was also conducted against German cockroaches as described in Study A. Several blends of Eugenol/PEP were tested.

For `CC1CCC(C(C)C)C(OC(=O)c2ccccc2O)C1` (stereo not drawn) [Menthyl salicylate, 2-hydroxybenzoic acid 5-methyl-2-(1-methylethyl)cyclohexyl ester], the “time to 100% M” value (harvester) was no more than 11 min, the “time to 100% M” value (black ants) was no more than 40 min and the “killing agent (conclusion in words)” value (German cockroaches; 250 mg/jar) was “good killing agent”. The “mortality (M)” value (German cockroaches; 250 mg/jar, 24 hr after continuous exposure) was 100%, the “KD (knock-down)” value (German cockroaches; menthyl salicylate 250 mg/jar, 20 min after exposure) was 30% and the “synergy with eugenol/PEP (in words)” value (German cockroaches; menthyl salicylate at 4-250 mg) was “synergizes the efficacy of eugenol/PEP”.
